The values that follow are results of earlier work, collected in article PMC6915728 (Nature Communications, 2019).

In this data set the test system is bacterial species in which the gene showed activity. Particulars: cited from earlier work.
Where [1] appears, read: Salmonella enterica serovar Typhimurium, ref http://www.microbiologyresearch.org/docserver/fulltext/micro/154/2/666.pdf?expires=1487718158&id=id&accname=guest&checksum=D8B884D02A8B2A8619216A48E0826377.
[2] abbreviates: Salmonella typhimurium, Escherichia coli, ref https://www.ncbi.nlm.nih.gov/pmc/articles/PMC3037666/, https://www.ncbi.nlm.nih.gov/pmc/articles/PMC3837802/pdf/zam7770.pdf.
Setting [3] is: Staphylococcus epidermidis, ref http://jb.asm.org/content/178/2/531.full.pdf, https://www.ncbi.nlm.nih.gov/pmc/articles/PMC4239024/.
The mark [4] stands for this setting: Staphylococcus aureus, Staphylococcus xylosus, ref http://www.jbc.org/content/274/13/8405.full.pdf.
Where [5] appears, read: Staphylococcus aureus, ref https://www.ncbi.nlm.nih.gov/pubmed/14707093.
[6] abbreviates: Staphylococcus aureus, ref http://onlinelibrary.wiley.com/doi/10.1111/j.1365-2958.2007.05986.x/epdf.
The mark [7] stands for this setting: Klebsiella pneumoniae, ref http://iai.asm.org/content/72/12/7107.full.pdf+html.
Setting [8] is: Staphylococcus aureus, SalmonellaTyphimurium, ref http://ac.els-cdn.com/S0022202X15369608/1-s2.0-S0022202X15369608-main.pdf?_tid=6fa51c80-693e-11e6-b18c-00000aacb362&acdnat=1471962936_8118358d97a056d7d78b5e8b4ca8d03b, https://www.sciencedirect.com/science/article/pii/S0928824401002917.
The mark [9] stands for this setting: Klebsiella pneumoniae, ref http://www.ncbi.nlm.nih.gov/pmc/articles/PMC2798511/.
The mark [10] stands for this setting: Salmonella typhimurium, Escherichia coli, ref https://www.ncbi.nlm.nih.gov/pmc/articles/PMC3037666/, https://www.ncbi.nlm.nih.gov/pmc/articles/PMC4808223/.
The mark [11] stands for this setting: Salmonella typhimurium, ref https://www.ncbi.nlm.nih.gov/pmc/articles/PMC3037666/.

Like-named read-outs stand apart in the source and are kept apart here. Ends that are not written are not given here.

As to `CC[C@H](C)[C@H](NC(=O)CN)C(=O)NCC(=O)N[C@@H](C)C(=O)N[C@H](C(=O)N[C@@H](CC(C)C)C(=O)N[C@@H](CCCCN)C(=O)N[C@H](C(=O)N[C@@H](CC(C)C)C(=O)N[C@H](C(=O)N[C@H](C(=O)NCC(=O)N[C@@H](CC(C)C)C(=O)N1CCC[C@H]1C(=O)N[C@@H](C)C(=O)N[C@@H](CC(C)C)C(=O)N[C@H](C(=O)N[C@@H](CO)C(=O)N[C@@H](Cc1c[nH]c2ccccc12)C(=O)N[C@H](C(=O)N[C@@H](CCCCN)C(=O)N[C@@H](CCCNC(=N)N)C(=O)N[C@@H](CCCCN)C(=O)N[C@@H](CCCNC(=N)N)C(=O)N[C@@H](CCC(N)=O)C(=O)N[C@@H](CCC(N)=O)C(N)=O)[C@@H](C)CC)[C@@H](C)CC)[C@@H](C)O)[C@@H](C)O)C(C)C)C(C)C` [melittin], the “Gene that modulates bacterial susceptibility to the AMP” value by setting is: under setting [1], “yejA”; under setting [2], “cpxA (CpxA/CpxR)”. On to CRAMP, for which the “Gene that modulates bacterial susceptibility to the AMP” value is reported as “pgtE”. For Colistin, the “Gene that modulates bacterial susceptibility to the AMP” value runs as follows: (Acinetobacter baumannii, ref https://mbio.asm.org/content/4/3/e00021-13) “pmrB”; (Escherichia coli, Klebsiella pneumoniae, Pseudomonas aeruginosa, Kluyvera ascorbata, ref http://www.ncbi.nlm.nih.gov/pubmed/26603172, http://ac.els-cdn.com/S1473309915005332/1-s2.0-S1473309915005332-main.pdf?_tid=16a7f944-6944-11e6-8a9d-00000aab0f02&acdnat=1471965364_7f481026d1a49114e23adef4a6b4d1a9, https://www.ncbi.nlm.nih.gov/pmc/articles/PMC5119035/) “mcr1”; (Pseudomonas aeruginosa, ref https://onlinelibrary.wiley.com/doi/epdf/10.1111/j.1365-2958.2008.06152.x) “mexA, mexB”. As for “Epidermin (IASKFICTPGCAKTGSFNSYCC; also: lantibiotic, thioether rings, places not given here; UniProt P08136 31-52, looked up)”, the “Gene that modulates bacterial susceptibility to the AMP” value under setting [3] is on record as “epiE, epiF, epiG”.

For GIGKFLHSAKKFGKAFVGEIMNS [Magainin 2], the “Gene that modulates bacterial susceptibility to the AMP” value runs as follows: (Salmonella enterica serovar Typhimurium, ref http://onlinelibrary.wiley.com/doi/10.1111/j.1365-2958.2004.04107.x/full) “yqjA”; (Salmonella enterica serovar Typhimurium, ref http://www.jbc.org/content/279/37/38618.long, https://onlinelibrary.wiley.com/doi/epdf/10.1111/j.1365-2958.2005.04553.x) “slyA”; (Salmonella enterica serovar Typhimurium, ref http://www.jbc.org/content/279/37/38618.long) “ugtL”. On to Human alfa-defensin1, for which the “Gene that modulates bacterial susceptibility to the AMP” value under setting [4] is “dltA (dlt operon)”. As for Human alfa-defensin3, under setting [4], the “Gene that modulates bacterial susceptibility to the AMP” value was “dltA (dlt operon)”. As for Human alpha-defensin-1, the “Gene that modulates bacterial susceptibility to the AMP” value under setting [5] is “sak”. On to “Human alpha-defensin-2 (CYCRIPACIAGERRYGTCIYQGRLWAFCC; ends and bridges not checked; cysteine pairing not given here; UniProt P59665 66-94, looked up)”, for which the “Gene that modulates bacterial susceptibility to the AMP” value under setting [5] was “sak”. Take “Human beta-defensin3 (GIINTLQKYYCRVRGGRCAVLSCLPKEEQIGKCSTRGRKCCRRKK; ends and bridges not checked; cysteine pairing not given here; UniProt P81534 23-67, looked up)”: under setting [6], the “Gene that modulates bacterial susceptibility to the AMP” value is listed as “apsS”. For the molecule Human neutrophil peptide-1, the “Gene that modulates bacterial susceptibility to the AMP” value under setting [7] is listed as “cps”. Consider “LL-37 (LLGDFFRKSKEKIGKEFKRIVQRIKDFLRNLVPRTES; Antibacterial peptide LL-37; UniProt P49913 134-170, looked up)”, for which the “Gene that modulates bacterial susceptibility to the AMP” value was “mtrC, mtrD, mtrE” (Neisseria meningitidis, Neisseria gonorrhoeae, ref http://www.ncbi.nlm.nih.gov/pmc/articles/PMC1196002/); “lptA” (Neisseria meningitidis, ref https://www.ncbi.nlm.nih.gov/pmc/articles/PMC1196002/); “hemB” under setting [8]; “icaA(ica operon)” (Staphylococcus epidermidis, ref http://onlinelibrary.wiley.com/doi/10.1046/j.1462-5822.2004.00367.x/epdf). For Magainin II, the “Gene that modulates bacterial susceptibility to the AMP” value under setting [4] was “dltA (dlt operon)”. For Nisin, the “Gene that modulates bacterial susceptibility to the AMP” value is, setting by setting: (Bacillus subtilis, gene psdA (yvcR), […]) “psdA (yvcR)”; (Bacillus subtilis, gene psdB (yvcS), […]) “psdB (yvcS)”; (Lactococcus lactis, genes nisE, nisF, nisG, […]) “nisE, nisF, nisG”; (Lactococcus lactis, genes ysaB, ysaC, […]) “ysaB, ysaC”; (Listeria monocytogenes, […]) “anrA (lmo2114)”; (Staphylococcus aureus, […]) “braA,braB”.

As for bacitracin, the “Gene that modulates bacterial susceptibility to the AMP” value (Listeria monocytogenes, ref https://www.ncbi.nlm.nih.gov/pmc/articles/PMC2944581/) is on record as “anrA (lmo2114)” and the “Gene that modulates bacterial susceptibility to the AMP” value (Staphylococcus aureus, ref https://www.ncbi.nlm.nih.gov/pmc/articles/PMC3718698/) was “braA,braB”. On to “beta-defensin-1 (DHYNCVSSGGQCLYSACPIFTKIQGTCYRGKAKCCK; ends and bridges not checked; cysteine pairing not given here; UniProt P60022 33-68, looked up)”, for which the “Gene that modulates bacterial susceptibility to the AMP” value is reported as “pla”.

With colistin, the “Gene that modulates bacterial susceptibility to the AMP” value was “lpxA” (Acinetobacter baumannii, ref http://aac.asm.org/content/54/12/4971.full.pdf+html) and “hemB” under setting [8]. “dermcidin (SSLLEKGLDGAKKAVGGLGKLGKDAVEDLESVGKGAVHDVKDVLDSV; DCD-1; UniProt P81605 63-109, looked up)”: the “Gene that modulates bacterial susceptibility to the AMP” value under setting [6] is reported as “apsS”. “gallidermin (IASKFLCTPGCAKTGSFNSYCC; also: lantibiotic, thioether rings, places not given here; UniProt P21838 31-52, looked up)”: the “Gene that modulates bacterial susceptibility to the AMP” value is, setting by setting: under setting [4], “dltA (dlt operon)”; under setting [3], “epiE, epiF, epiG”.

Consider “human beta-defensin 1 (DHYNCVSSGGQCLYSACPIFTKIQGTCYRGKAKCCK; ends and bridges not checked; cysteine pairing not given here; UniProt P60022 33-68, looked up)”, for which the “Gene that modulates bacterial susceptibility to the AMP” value under setting [9] is recorded as “acrB”.

human beta-defensin 2: the “Gene that modulates bacterial susceptibility to the AMP” value under setting [9] is recorded as “acrB” and the “Gene that modulates bacterial susceptibility to the AMP” value under setting [8] is given as “hemB”. As to “human beta-defensin 3 (GIINTLQKYYCRVRGGRCAVLSCLPKEEQIGKCSTRGRKCCRRKK; ends and bridges not checked; cysteine pairing not given here; UniProt P81534 23-67, looked up)”, the “Gene that modulates bacterial susceptibility to the AMP” value under setting [8] is recorded as “hemB”. Regarding “human beta-defensin-1 (DHYNCVSSGGQCLYSACPIFTKIQGTCYRGKAKCCK; ends and bridges not checked; cysteine pairing not given here; UniProt P60022 33-68, looked up)”, the “Gene that modulates bacterial susceptibility to the AMP” value by setting is: (Burkholderia cenocepacia, ref http://www.microbiologyresearch.org/docserver/fulltext/micro/155/9/2818.pdf?expires=1468919235&id=id&accname=guest&checksum=2CEA64BA8195145BE72C98BB20076628) “zmpB”; under setting [7], “cps”; (Proteus mirabilis, ref http://www.ncbi.nlm.nih.gov/pmc/articles/PMC517467/pdf/0713-04.pdf) “zapA”. Regarding human beta-defensin-2, under setting [1], the “Gene that modulates bacterial susceptibility to the AMP” value was “yejA”. Take “human defensin (human beta-defensin)-1 (DHYNCVSSGGQCLYSACPIFTKIQGTCYRGKAKCCK; ends and bridges not checked; cysteine pairing not given here; UniProt P60022 33-68, looked up)”: the “Gene that modulates bacterial susceptibility to the AMP” value under setting [1] is “yejA”. With human neutrophil peptide-1, the “Gene that modulates bacterial susceptibility to the AMP” value reads like this: under setting [9], “acrB”; under setting [10], “amiA, amiC”. On to lactoferricin B, for which the “Gene that modulates bacterial susceptibility to the AMP” value under setting [8] is listed as “hemB”. As to lactoferrin, the “Gene that modulates bacterial susceptibility to the AMP” value under setting [7] is listed as “cps”. In the case of magainin 2, the “Gene that modulates bacterial susceptibility to the AMP” value under setting [2] is “cpxA (CpxA/CpxR)”; the “Gene that modulates bacterial susceptibility to the AMP” value under setting [10] is “amiA, amiC”; the “Gene that modulates bacterial susceptibility to the AMP” value under setting [11] is on record as “tatA”. Regarding mellitin, the “Gene that modulates bacterial susceptibility to the AMP” value is, setting by setting: under setting [10], “amiA, amiC”; under setting [11], “tatA”. Regarding nisin, the “Gene that modulates bacterial susceptibility to the AMP” value was “dltA (dlt operon)” under setting [4] and “apsS” under setting [6].
